ChEMBL document CHEMBL3396985, “Nanomolar inhibitors of Mycobacterium tuberculosis glutamine synthetase 1: synthesis, biological evaluation and X-ray crystallographic studies” (Bioorg Med Chem Lett, 2015)
pIC50: −log10 of the molar value. Values after ≈ are worked out from the molar mass of the structure shown. Active and inactive are the calls of the source. The calls are words filed in the database; no cut-off is given here.

Key:
[1] = Inhibition of Mycobacterium tuberculosis glutamine synthetase 1 assessed as reduction in ADP formation incubated 1 hr in presence of glutamate, ammonium chloride and ATP
[2] = test system: Mycobacterium tuberculosis; test: Antimycobacterial activity against Mycobacterium tuberculosis assessed as inhibition of microbial proliferation after 6 days by cell titer blue reagent based assay; assay type: functional; conditions: 144 h
HepG2 = test: Cytotoxicity against human HepG2 cells after 40 hrs by celltiter Glo assay; assay type: cell-based; conditions: HepG2, 40 h
[3] = test system: Mycobacterium tuberculosis; test: microbe, parasite or virus in culture; conditions: H37Rv ATCC 25618
Description: Antimycobacterial activity against Mycobacterium tuberculosis H37Rv ATCC 25618 assessed as inhibition of microbial proliferation

[4] = Lipophilicity, log D of the compound; assay type: physicochemical; conditions: octanol/water
[5] = test system: Mycobacterium tuberculosis; test: ATP competitive inhibition of Mycobacterium tuberculosis glutamine synthetase 1 assessed as reduction in ADP formation incubated 1 hr in presence of glutamate, ammonium chloride and ATP

Row | Structure (SMILES) | pIC50 [1] | IC80 [2] [µM] | MIC [2] [µM] | pIC50 (HepG2) | MIC [3] [µM] | logD [4] | inhibition [5]
1 | CN(C)CCCn1c2c(n3ccnc3c1=O)Cc1c(-c3cccnc3)cccc1-2 | 6.88 | > 30 | > 30 | < 4.52 | – | – | –
2 | COc1cccc(-c2cccc3c2Cc2c-3n(CCCN(C)C)c(=O)c3nccn23)c1 | 7.08 | > 30 | > 30 | 4.82 | – | – | –
3 | CC(=O)Nc1cccc2c1Cc1c-2[nH]c(=O)c2nccn12 | 5.68 | > 30 | > 30 | < 4.52 | – | – | –
4 | C[S@](=N)(=O)CC[C@H](N)C(=O)O | – | – | – | – | 10 (≈ 1.8 µg/mL) | – | –
5 | C=CCn1c2c(n3ccnc3c1=O)Cc1c(-c3ccccc3)cccc1-2 | 6.48 | > 30 | > 30 | < 4.52 | – | 2.7 | –
6 | C=CCCn1c2c(n3ccnc3c1=O)Cc1c(-c3cccnc3)cccc1-2 | 8.15 | > 30 | > 30 | < 4.52 | – | – | –
7 | COCCn1c2c(n3ccnc3c1=O)Cc1c(-c3ccccc3)cccc1-2 | 6.66 | > 30 | > 30 | 4.64 | – | – | –
8 | CN(C)CCCn1c2c(n3ccnc3c1=O)Cc1c(-c3ccccn3)cccc1-2 | 6.07 | > 30 | > 30 | < 4.52 | – | – | –
9 | Cn1c2c(n3ccnc3c1=O)Cc1c(-c3ccccc3)cccc1-2 | 6.77 | > 30 | > 30 | < 4.52 | – | 2.25 | –
10 | O=c1c2nccn2c2c(n1C1CC1)-c1cccc(-c3ccccn3)c1C2 | 6.34 | > 30 | > 30 | < 4.52 | – | – | –
11 | O=c1[nH]c2c(n3ccnc13)Cc1c(-c3cccnc3)cccc1-2 | 7.51 | 29 | 29 | < 4.52 | – | 0.26 | –
12 | COc1cccc(-c2cccc3c2Cc2c-3[nH]c(=O)c3nccn23)c1 | 7.29 | > 30 | > 30 | < 4.52 | – | 1.87 | –
13 | O=c1c2nccn2c2c(n1Cc1ccccc1)-c1cccc(-c3ccccc3)c1C2 | 6.18 | 29 | 29 | 4.70 | – | 3.33 | –
14 | O=c1[nH]c2c(n3ccnc13)Cc1c(-c3ccccc3)cccc1-2 | 7.51 | > 30 | > 30 | < 4.52 | – | 3.52 | Active
15 | CC(C)Cn1c2c(n3ccnc3c1=O)Cc1c(-c3cccnc3)cccc1-2 | 7.18 | > 30 | > 30 | < 4.52 | – | – | –
16 | O=c1[nH]c2c(n3ccnc13)Cc1c(Br)cccc1-2 | < 7.52 | > 30 | > 30 | < 4.52 | – | 1.77 | –
17 | O=c1[nH]c2c(n3ccnc13)Cc1c-2cccc1-c1cccc2ncccc12 | 5.15 | > 30 | > 30 | < 4.52 | – | 1.02 | –
18 | O=c1[nH]c2c(n3ccnc13)Cc1c(-c3cccc(Cl)c3)cccc1-2 | 6.21 | 22 | 22 | 4.82 | – | 2.38 | –
